As a reminder, the IC50 is the midpoint of a concentration-inhibition curve.

The structures appear in SMILES notation. Where a name gives a salt, the structure may show the parent alone. A value given as a limit tells only on which side of the number the result lay.

For the test, the system named is ΔG/SEAP/HCV E1E2. In words: Effect of test substance on cell infection with HCV pseudotype virus (SEAP reporter assay in HepG2 cells). It counts as cell-based. To be noted: Hepatitis C virus. A general note: A reporter such as luciferase makes a cellular process visible.
On to `CCOC(=O)N1CCc2c(-c3cc(OC)cc(OC)c3)nn(-c3cc(N4CC[C@H](O)C4)ccc3C(F)(F)F)c(=O)c21` [Example 60, 4-(3,5-dimethoxy-phenyl)-6-[5-((S)-3-hydroxy-pyrrolidin-1-yl)-2-trifluoromethyl-phenyl]-7-oxo-2,3,6,7-tetrahydro-pyrrolo[2,3-d]pyridazine-1-carboxylic acid ethyl ester], for which the IC50 is under 100 nM.
As to `COc1cc(OC)cc(-c2nn(-c3cc(NC(C)=O)ccc3C(F)(F)F)c(=O)c3c2CCC3)c1` [Example 159, N-{3-[4-(3,5-dimethoxy-phenyl)-1-oxo-1,5,6,7-tetrahydro-cyclopenta[d]pyridazin-2-yl]-4-trifluoromethyl-phenyl}-acetamide], the IC50 was under 100 nM.
The compound `COc1ccc(-c2nn(-c3cc(N4CC[C@H](O)C4)ccc3C(F)(F)F)c(=O)c3c2CCC3)cc1` [Example 77, 2-[5-((S)-3-hydroxy-pyrrolidin-1-yl)-2-trifluoromethyl-phenyl]-4-(4-methoxy-phenyl)-2,5,6,7-tetrahydro-cyclopenta[d]pyridazin-1-one] showed an IC50 of under 100 nM.
`COc1cc(OC)cc(-c2nn(-c3cc(NCC(=O)N(C)C)ccc3C(F)(F)F)c(=O)c3c2CCC3)c1` [Example 125, 2-{3-[4-(3,5-dimethoxy-phenyl)-1-oxo-1,5,6,7-tetrahydro-cyclopenta[d]pyridazin-2-yl]-4-trifluoromethyl-phenylamino}-N,N-dimethyl-acetamide] returned an IC50 of under 100 nM.
`CNCCNc1ccc(C(F)(F)F)c(-n2nc(-c3cc(OC)cc(OC)c3)c3c(c2=O)CCC3)c1` [Example 157, 4-(3,5-dimethoxy-phenyl)-2-[5-(2-methylamino-ethylamino)-2-trifluoromethyl-phenyl]-2,5,6,7-tetrahydro-cyclopenta[d]pyridazin-1-one hydrochloride] registered a half-maximal inhibitory concentration (IC50) of 100 to 10000 nM.
For `COc1cc(OC)cc(-c2nn(-c3ccc(Br)cc3C(F)(F)F)c(=O)c3c2CCC3)c1` [Example 106, 2-(4-bromo-2-trifluoromethyl-phenyl)-4-(3,5-dimethoxy-phenyl)-2,5,6,7-tetrahydro-cyclopenta[d]pyridazin-1-one], the IC50 is 100 to 10000 nM.
For `COc1cc(OC)cc(-c2nn(-c3cc(C)ccc3C(F)(F)F)c(=O)c3c2CCC3)c1` [Example 88, 4-(3,5-dimethoxy-phenyl)-2-(5-methyl-2-trifluoromethyl-phenyl)-2,5,6,7-tetrahydro-cyclopenta[d]pyridazin-1-one] the value was under 100 nM; for `O=c1c2c(c(-c3ccccc3Cl)nn1-c1cc(N3CC[C@H](O)C3)ccc1C(F)(F)F)CCC2` [Example 96, 4-(2-chloro-phenyl)-2-[5-((S)-3-hydroxy-pyrrolidin-1-yl)-2-trifluoromethyl-phenyl]-2,5,6,7-tetrahydro-cyclopenta[d]pyridazin-1-one], 100 to 10000 nM.
The compound `CN(C)c1cccc(-c2nn(-c3cc(N4CC[C@H](O)C4)ccc3C(F)(F)F)c(=O)c3c2CCC3)c1` [Example 85, 4-(3-dimethylamino-phenyl)-2-[5-((S)-3-hydroxy-pyrrolidin-1-yl)-2-trifluoromethyl-phenyl]-2,5,6,7-tetrahydro-cyclopenta[d]pyridazin-1-one] showed an IC50 of under 100 nM.
`CNC(=O)CNc1ccc(C(F)(F)F)c(-n2nc(-c3cc(OC)cc(OC)c3)c3c(c2=O)CCC3)c1` [Example 124, 2-{3-[4-(3,5-dimethoxy-phenyl)-1-oxo-1,5,6,7-tetrahydro-cyclopenta[d]pyridazin-2-yl]-4-trifluoromethyl-phenylamino}-N-methyl-acetamide] showed a concentration for half-maximal inhibition (IC50) of under 100 nM.
As to `COc1cc(OC)cc(-c2nn(-c3cc(C#CCO)ccc3C(F)(F)F)c(=O)c3c2CCC3)c1` [Example 120, 4-(3,5-dimethoxy-phenyl)-2-[5-(3-hydroxy-prop-1-ynyl)-2-trifluoromethyl-phenyl]-2,5,6,7-tetrahydro-cyclopenta[d]pyridazin-1-one], the IC50 is under 100 nM.
For `CCOc1ccc(C(F)(F)F)c(-n2nc(-c3cc(OC)cc(OC)c3)c3c(c2=O)CCC3)c1` [Example 62, 4-(3,5-dimethoxy-phenyl)-2-(5-ethoxy-2-trifluoromethyl-phenyl)-2,5,6,7-tetrahydro-cyclopenta[d]pyridazin-1-one], the IC50 was under 100 nM.
`COc1cc(OC)cc(-c2nn(-c3cc(NC(C)CO)ccc3C(F)(F)F)c(=O)c3c2CCC3)c1` (centres unmarked) [Example 131, 4-(3,5-dimethoxy-phenyl)-2-[5-(2-hydroxy-1-methyl-ethylamino)-2-trifluoromethyl-phenyl]-2,5,6,7-tetrahydro-cyclopenta[d]pyridazin-1-one] displayed a half-maximal inhibitory concentration (IC50) of under 100 nM.
The compound `COc1cc(OC)cc(-c2nn(-c3cc(NC4CCCC4)ccc3C(F)(F)F)c(=O)c3c2CCC3)c1` [Example 146, 2-(5-cyclopentylamino-2-trifluoromethyl-phenyl)-4-(3,5-dimethoxy-phenyl)-2,5,6,7-tetrahydro-cyclopenta[d]pyridazin-1-one] came in with a concentration for half-maximal inhibition (IC50) of under 100 nM.
`COc1cc(OC)cc(-c2nn(-c3cc(NCCC4CC4)ccc3C(F)(F)F)c(=O)c3c2CCC3)c1` [Example 147, 2-[5-(2-cyclopropyl-ethylamino)-2-trifluoromethyl-phenyl]-4-(3,5-dimethoxy-phenyl)-2,5,6,7-tetrahydro-cyclopenta[d]pyridazin-1-one] showed an IC50 of under 100 nM.
Then `COc1cc(OC)cc(-c2nn(-c3cc(N4CC[C@H](O)C4)ccc3C(F)(F)F)c(=O)c3c2CCN3CC(=O)N2CCN(C(C)=O)CC2)c1` [Example 41, 1-[2-(4-acetyl-piperazin-1-yl)-2-oxo-ethyl]-4-(3,5-dimethoxy-phenyl)-6-[5-((S)-3-hydroxy-pyrrolidin-1-yl)-2-trifluoromethyl-phenyl]-1,2,3,6-tetrahydro-pyrrolo[2,3-d]pyridazin-7-one], with under 100 nM; and `COC(=O)CCNc1ccc(C(F)(F)F)c(-n2nc(-c3cc(OC)cc(OC)c3)c3c(c2=O)CCC3)c1` [Example 143, 3-{3-[4-(3,5-dimethoxy-phenyl)-1-oxo-1,5,6,7-tetrahydro-cyclopenta[d]pyridazin-2-yl]-4-trifluoromethyl-phenylamino}-propionic acid methyl ester], with under 100 nM.
The compound `COc1cc(OC)cc(-c2nn(-c3cc(N4CC[C@H](O)C4)ccc3C(F)(F)F)c(=O)c3c2CCN3CCN)c1` [Example 49, 1-(2-amino-ethyl)-4-(3,5-dimethoxy-phenyl)-6-[5-((S)-3-hydroxy-pyrrolidin-1-yl)-2-trifluoromethylphenyl]-1,2,3,6-tetrahydro-pyrrolo[2,3-d]pyridazin-7-one] registered an IC50 of under 100 nM.
For `O=c1c2c(c(-c3ccc(C(F)(F)F)cc3)nn1-c1cc(N3CC[C@H](O)C3)ccc1C(F)(F)F)CCC2` [Example 75, 2-[5-((S)-3-hydroxy-pyrrolidin-1-yl)-2-trifluoromethyl-phenyl]-4-(4-trifluoromethyl-phenyl)-2,5,6,7-tetrahydro-cyclopenta[d]pyridazin-1-one] the value was 100 to 10000 nM.
The compound `COCCNC(=O)CN1CCc2c(-c3cc(OC)cc(OC)c3)nn(-c3cc(N4CC[C@H](O)C4)ccc3C(F)(F)F)c(=O)c21` [Example 36, 2-{4-(3,5-dimethoxy-phenyl)-6-[5-((S)-3-hydroxy-pyrrolidin-1-yl)-2-trifluoromethyl-phenyl]-7-oxo-2,3,6,7-tetrahydro-pyrrolo[2,3-d]pyridazin-1-yl}-N-(2-methoxy-ethyl)-acetamide] registered an IC50 of under 100 nM.

The record behind these values is patent publication EP1953147A1, “HETEROCYCLIC COMPOUND AND MEDICINAL APPLICATION THEREOF” (priority 2005, dated 2007).
